Measurements: patent publication US11859014B2, “Peptidomimetics for the treatment of Norovirus infection” (EMORY UNIVERSITY, priority 2016, dated 2024)

Columns and labels:
[1] = Cellular toxicity assay in PBM cells; assay type: cell-based; conditions: human, read-out: Cytotoxicity, CC50 (μM) PBM
Method: (§1) The toxicity of the compounds was assessed in Vero, human PBM, CEM (human lymphoblastoid), MT-2, and HepG2 cells, as described previously (see Schinazi R. F., Sommadossi J.-P., Saalmann V., Cannon D. L., Xie M.-Y., Hart G. C., Smith G. A. & Hahn E. F. Antimicrob. Agents Chemother. 1990, 34, 1061-67). Cycloheximide was included as positive cytotoxic control, and untreated cells exposed to solvent were included as negative controls. The cytotoxicity CC50 was obtained from the concentration-response curve using the median effective method described previously (see Chou T.-C. & Talalay P. Adv. Enzyme Regul. 1984, 22, 27-55; Belen'kii M. S. & Schinazi R. F. Antiviral Res. 1994, 25, 1-11).

[2] = molecular target: Norovirus GI.1 (Norwalk virus) protease (Norovirus (strain Human/NoV/United States/Norwalk/1968/GI) (Hu/NV/NV/1968/US), UniProt Q83883); experiment: FRET based enzyme assay, Norovirus GI.1 protease; assay type: biochemical; conditions: 37° C.
Method: Norovirus GI.1 (Norwalk virus) protease were tested for enzymatic activity using a fluorescence resonance energy transfer (FRET) based enzyme assay. Norovirus GI.1 represents 5 to 10% of the clinical isolates. The FRET kinetic enzyme assays were performed as follows. The purified viral protease was diluted in reaction buffer (50 mM HEPES, pH 8.0, 120 mM NaCl, 0.4 mM EDTA, 20% glycerol, and 4 mM DTT) to a final concentration of 128 nM. Each reaction was initiated by addition of FRET substrate [(HiLyte Fluor 488) -[…]-(QXL520)]. To determine kinetic parameters, the FRET substrate was serially diluted to final concentrations of 100 μM to 49 nM and added to the reaction. The final reaction volume was 100 μL. The fluorescence emitted by substrate cleavage was monitored by a microplate reader (SpectraMax M5, Molecular Devices, Sunnyvale, CA, USA) at a 488 nm excitation wavelength with an emission wavelength of 520 nm. Readings were taken every minute for 20 minutes, and the reactions were performed at 37° C. In order to convert RFU into μM, a standard curve was created by measuring fluorescence of free HiLyte Fluor 488, which was serially diluted from 250 nM to 3.9 nM. All data were plotted and analyzed with GraphPad Prism v. 6.07.

[3] = Cellular toxicity assay in Vero cells; assay type: cell-based; conditions: African green monkey, read-out: Cytotoxicity, CC50 (μM) VERO
Method: as §1

[4] = Cellular toxicity assay in CEM cells; assay type: cell-based; conditions: human, read-out: Cytotoxicity, CC50 (μM) CEM
Method: as §1

[5] = system: NoV replicon RNA in HG23 cells (derived from Huh-7 cells); experiment: Norwalk virus replicon assay in HG23 cells; assay type: cell-based; conditions: 120 h, five days incubation; for EC50: read-out: Anti-NoV activity (μM) EC50; for EC90: read-out: Anti-NoV activity (μM) EC90
Method: Norwalk virus replicon assays were performed as reported by Constantini et al. (Antivir Ther 2012, 17, 981-991). HG23 cells (derived from Huh-7 cells) containing NoV replicon RNA are seeded at a density of 3,000 cells/well in 96-well plates and incubated at 37° C. and 5% CO2 overnight. Compounds were tested at concentrations ranging from 0.1 to 100 μM. Compounds were added in triplicate to 80 to 90% confluent monolayers and incubated at 37° C. and 5% CO2. Untreated cells were included in each plate. Following five days incubation (37° C., 5% CO2), total cellular RNA was isolated with RNeasy96 extraction kit from Qiagen. Replicon RNA and an internal control (TaqMan rRNA control reagents, Applied Biosystems) were amplified in a single step.
The median effective concentrations (EC50) ranges of several of the compounds described herein against NoV are shown in Table 3: […]

[6] = Cellular toxicity assay in Huh7 cells; assay type: cell-based; conditions: human, read-out: Cytotoxicity, CC50 (μM) Huh7
Method: [The procedure below names another cell line; the source lists this cell line under the same test.] as §1

Minerva virus protease = Minerva virus protease (Norovirus GII.4 (Minerva virus), UniProt P54634); experiment: FRET enzyme kinetic assay, NoV GII.4 Minerva virus protease; assay type: biochemical; conditions: Minerva virus (GII.4) protease; inhibitor incubated with enzyme 90 minutes at 37° C. before FRET substrate
Method: The ability of these compounds to inhibit the NoV, specifically Minerva virus protease catalytic Cys139 covalently (IC50 and Ki) was determined with an enzyme kinetic assay. NoV strains, specifically GII.4 such as the Minerva virus are responsible for causing the majority (˜80%) of infections in humans. The activity of the inhibitors was evaluated by monitoring the cleavage of a FRET substrate every one minute for 20 minutes (excitation/emission: 488/520 nm) using a SpectraMax M5 microplate reader (Molecular Devices, Sunnyvale CA). Serial dilutions of each inhibitor were incubated with enzyme for 90 minutes at 37° C. before addition of the FRET substrate to ensure complete inactivation. Commercially available protease inhibitors chymostatin and rupintrivir were used as controls.

Chain of Norovirus GI.1 (Norwalk virus) protease (Q83883 1101-1281): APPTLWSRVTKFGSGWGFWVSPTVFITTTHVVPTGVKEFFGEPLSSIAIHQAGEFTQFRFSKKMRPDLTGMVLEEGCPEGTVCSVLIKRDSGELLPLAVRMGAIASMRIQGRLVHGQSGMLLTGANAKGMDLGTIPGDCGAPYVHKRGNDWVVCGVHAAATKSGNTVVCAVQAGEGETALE
Chain of Minerva virus protease (P54634 whole entry, looked up): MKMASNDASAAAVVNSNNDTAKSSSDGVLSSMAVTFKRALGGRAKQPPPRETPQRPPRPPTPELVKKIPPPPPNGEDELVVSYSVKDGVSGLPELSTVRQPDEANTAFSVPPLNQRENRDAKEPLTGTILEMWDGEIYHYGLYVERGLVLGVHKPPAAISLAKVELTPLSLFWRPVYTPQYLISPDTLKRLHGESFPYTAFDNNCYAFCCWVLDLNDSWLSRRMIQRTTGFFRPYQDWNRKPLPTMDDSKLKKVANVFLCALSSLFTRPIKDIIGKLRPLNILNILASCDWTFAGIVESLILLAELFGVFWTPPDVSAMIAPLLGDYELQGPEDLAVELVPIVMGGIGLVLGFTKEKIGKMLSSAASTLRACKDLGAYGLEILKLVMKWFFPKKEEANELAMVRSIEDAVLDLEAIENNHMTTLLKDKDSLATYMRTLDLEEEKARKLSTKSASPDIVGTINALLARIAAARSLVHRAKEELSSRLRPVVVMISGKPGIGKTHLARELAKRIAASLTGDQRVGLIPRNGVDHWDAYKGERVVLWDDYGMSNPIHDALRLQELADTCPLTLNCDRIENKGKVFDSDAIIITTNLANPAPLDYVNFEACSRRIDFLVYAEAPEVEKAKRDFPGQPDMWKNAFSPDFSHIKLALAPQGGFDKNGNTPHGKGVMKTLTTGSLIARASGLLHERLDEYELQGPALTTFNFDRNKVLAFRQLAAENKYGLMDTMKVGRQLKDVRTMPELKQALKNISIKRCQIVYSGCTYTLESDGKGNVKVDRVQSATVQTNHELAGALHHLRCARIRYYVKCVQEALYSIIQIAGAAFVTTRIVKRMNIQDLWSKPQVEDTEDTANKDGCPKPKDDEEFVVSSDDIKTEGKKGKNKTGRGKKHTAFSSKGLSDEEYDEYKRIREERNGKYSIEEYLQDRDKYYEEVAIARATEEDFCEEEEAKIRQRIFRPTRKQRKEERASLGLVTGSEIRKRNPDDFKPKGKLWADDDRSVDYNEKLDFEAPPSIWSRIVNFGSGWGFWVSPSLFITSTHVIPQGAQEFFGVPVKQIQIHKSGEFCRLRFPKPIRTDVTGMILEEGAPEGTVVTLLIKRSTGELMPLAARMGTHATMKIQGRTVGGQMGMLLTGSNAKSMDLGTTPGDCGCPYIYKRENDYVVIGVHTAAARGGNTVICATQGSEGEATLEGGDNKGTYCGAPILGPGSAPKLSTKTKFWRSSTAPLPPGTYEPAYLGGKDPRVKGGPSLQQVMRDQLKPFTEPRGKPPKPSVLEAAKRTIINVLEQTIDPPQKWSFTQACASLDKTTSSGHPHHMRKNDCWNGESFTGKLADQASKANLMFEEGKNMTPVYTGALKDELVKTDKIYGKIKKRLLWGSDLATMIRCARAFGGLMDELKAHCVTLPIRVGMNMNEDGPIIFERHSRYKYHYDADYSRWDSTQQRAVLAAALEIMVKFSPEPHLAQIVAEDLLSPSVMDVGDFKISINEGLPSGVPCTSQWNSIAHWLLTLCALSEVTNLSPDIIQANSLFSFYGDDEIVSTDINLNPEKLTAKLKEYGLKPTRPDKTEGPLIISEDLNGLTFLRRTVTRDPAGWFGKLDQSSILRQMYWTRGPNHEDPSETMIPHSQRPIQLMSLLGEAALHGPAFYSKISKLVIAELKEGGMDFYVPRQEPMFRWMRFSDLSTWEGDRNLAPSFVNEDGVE

Compound | CC50 [1] [µM] | IC50 [2] [µM] | CC50 [3] [µM] | CC50 [4] [µM] | EC50 [5] [µM] | EC90 [5] [µM] | CC50 [6] [µM] | Ki [2] [µM] | CC50 ([4]; CEM lymphoblastoid cells) [µM] | IC50 (Minerva virus protease) [µM]
CC(C)C[C@H](NC(=O)[C@H](Cc1cccc2ccccc12)NC(=O)OCc1ccccc1)C(=O)N[C@@H](C[C@@H]1CCNC1=O)C1OC1S(C)(=O)=O (stereo partly drawn) [Compound 67, Benzyl ((2S)-1-(((2S)-4-methyl-1-(((1S)-1-(3-(methylsulfonyl)oxiran-2-yl)-2-((S)-2-oxopyrrolidin-3-yl)ethyl)amino)-1-oxopentan-2-yl)amino)-3-(naphthalen-1-yl)-1-oxopropan-2-yl)carbamate] | > 100 | > 10 | > 100 | 64 | 4.33 | > 20 |  |  |  | 
CC(C)C[C@H](NC(=O)[C@H](Cc1cccc2ccccc12)NC(=O)c1cnccn1)C(=O)N[C@H](C=O)C[C@@H]1CCNC1=O [Compound 29] | > 100 |  | > 100 | 38 | 0.08 | 0.46 | > 10 |  |  | 
CC(C)C[C@H](NC(=O)[C@H](Cc1cccc2ccccc12)NC(=O)OCc1ccccc1)C(=O)N[C@H](/C=C/C=O)C[C@@H]1CCNC1=O [Compound 64, Benzyl ((S)-1-(((S)-4-methyl-1-oxo-1-(((S,E)-5-oxo-1-((S)-2-oxopyrrolidin-3-yl)pent-3-en-2-yl)amino)pentan-2-yl)amino)-3-(naphthalen-1-yl)-1-oxopropan-2-yl)carbamate] |  | 10 |  |  |  |  |  |  |  | 
O=C[C@H](C[C@@H]1CCCNC1=O)NC(=O)[C@H](Cc1ccccc1)NC(=O)[C@H](Cc1cccc2ccccc12)NC(=O)OCc1ccccc1 [Compound 83, Benzyl ((S)-3-(naphthalen-1-yl)-1-oxo-1-(((S)-1-oxo-1-(((S)-1-oxo-3-((S)-2-oxopiperidin-3-yl)propan-2-yl)amino)-3-phenylpropan-2-yl)amino)propan-2-yl)carbamate] | 48.7 | 0.084 ± 0.019 | 41.2 |  | 0.33 | 0.91 |  | 0.256 ± 0.057 | 17 | 
CC(C)C[C@H](NC(=O)[C@H](Cc1cccc2ccccc12)NC(=O)OCc1ccccc1)C(=O)N[C@@H](C[C@@H]1CCCNC1=O)C(O)S(=O)(=O)O (stereo partly drawn) [Compound 37, Sodium (5S,8S,11S)-12-hydroxy-8-isobutyl-5-(naphthalen-1-ylmethyl)-3,6,9-trioxo-11-(((S)-2-oxopiperidin-3-yl)methyl)-1-phenyl-2-oxa-4,7,10-triazadodecane-12-sulfonate] | 44 | 0.654 ± 0.285 | > 100 | 18 |  |  | 11 | 2.24 ± 0.438 |  | 2.63 ± 1.04
CC(C)C[C@H](NC(=O)[C@H](Cc1cccc2ccccc12)NC(=O)OCc1ccccc1)C(=O)N[C@@H](C[C@@H]1CCCNC1=O)C(=O)C(F)(F)F [Compound 39, Benzyl ((S)-1-(((S)-4-methyl-1-oxo-1-(((S)-4,4,4-trifluoro-3-oxo-1-((S)-2-oxopiperidin-3-yl)butan-2-yl)amino)pentan-2-yl)amino)-3-(naphthalen-1-yl)-1-oxopropan-2-yl)carbamate] | 39 | > 10 | 11 | 2 |  |  | 14 |  |  | 
CC(C)C[C@H](NC(=O)[C@H](Cc1ccc(O)cc1)NC(=O)OCc1ccccc1)C(=O)N[C@H](C=O)C[C@@H]1CCCNC1=O [Compound 11, Benzyl ((S)-3-(4-hydroxyphenyl)-1-(((S)-4-methyl-1-oxo-1-(((S)-1-oxo-3-((S)-2-oxopiperidin-3-yl)propan-2-yl)amino)pentan-2-v)amino)-1-oxopropan-2-yl)carbamate] | > 100 |  | > 100 | > 100 | 0.7 | 2.4 | > 10 |  |  | 
CC(C)C[C@H](NC(=O)[C@H](Cc1cccc2ccccc12)NC(=O)OCc1ccccc1)C(=O)N[C@H](/C=C(\C#N)C(N)=O)C[C@@H]1CCCNC1=O [Compound 36, Benzyl ((S)-1-(((S)-1-(((S,E)-5-amino-4-cyano-5-oxo-1-((S)-2-oxopiperidin-3-yl)pent-3-en-2-yl)amino)-4-methyl-1-oxopentan-2-yl)amino)-3-(naphthalen-1-yl)-1-oxopropan-2-yl)carbamate] | 45 | 0.593 ± 0.124 | > 100 | 9 |  |  | 8 | 1.7 ± 0.332 |  | 1.17 ± 0.333
CC(C)C[C@H](NC(=O)[C@H](Cc1ccc(F)cc1)NC(=O)OCc1ccccc1)C(=O)N[C@H](C=O)C[C@@H]1CCCNC1=O [Compound 35, Benzyl ((S)-3-(4-fluorophenyl)-1-(((S)-4-methyl-1-oxo-1-(((S)-1-oxo-3-((S)-2-oxopiperidin-3-yl)propan-2-yl)amino)pentan-2-yl)amino)-1-oxopropan-2-yl)carbamate] | 52 | 0.096 ± 0.011 | > 100 |  |  |  | 60 | 0.465 ± 0.201 | 35 | 
CC(C)C[C@H](NC(=O)[C@H](Cc1cccc2ccccc12)NC(=O)OCc1ccccc1)C(=O)N[C@@H](C[C@@H]1CCCNC1=O)C(O)C(F)(F)F (stereo partly drawn) [Compound 38, Benzyl ((2S)-1-(((2S)-4-methyl-1-oxo-1-(((2S)-4,4,4-trifluoro-3-hydroxy-1-((S)-2-oxopiperidin-3-yl)butan-2-yl)amino)pentan-2-yl)amino)-3-(naphthalen-1-yl)-1-oxopropan-2-yl)carbamate] | 18 | > 10 | 22 |  |  |  | 13 |  | 6 | 
CC(C)C[C@H](NC(=O)[C@H](Cc1cccc2ccccc12)NC(=O)OCc1ccccc1)C(=O)N[C@H](C=O)C[C@@H]1CCCNC1=O [Compound 19] | 24 |  | 20 | 32 | 0.07 | 0.27 | > 10 |  |  | 
O=C(N[C@@H](Cc1cccc2ccccc12)C(=O)N[C@@H](Cc1ccccc1)C(=O)N[C@H](CCl)C[C@@H]1CCCNC1=O)OCc1ccccc1 [Compound 84, Benzyl ((S)-1-(((S)-1-(((S)-1-chloro-3-((S)-2-oxopiperidin-3-yl)propan-2-yl)amino)-1-oxo-3-phenylpropan-2-yl)amino)-3-(naphthalen-1-yl)-1-oxopropan-2-yl)carbamate] | 75 | > 100 | 51.7 |  | > 10 |  |  |  | 26.6 | 
CC(C)C[C@H](NC(=O)[C@H](Cc1cccc2ccccc12)NC(=O)c1cnccn1)C(=O)N[C@H](C=O)C[C@@H]1CCCNC1=O [Compound 23] | > 100 |  | > 100 | 39 | 0.07 | 0.33 | > 10 |  |  | 
